Test: xn = mol fraction of the nth substance listed
Conditions: 101 kPa, Liquid; for speed of sound: Sing-around technique in a fixed-path interferometer; for mass density: Vibrating tube method

CCCCn1cc[n+](C)c1C.F[B-](F)(F)F [1-butyl-2,3-dimethylimidazolium tetrafluoroborate] + OCCO
Conditions | mass density [kg/m3] | speed of sound [m/s]
288.15 K, x1 = 0.0698 | 1138.16 | 1674
288.15 K, x1 = 0.1114 | 1148.04 | 1668.1
288.15 K, x1 = 0.219 | 1163.09 | 1661.9
288.15 K, x1 = 0.3157 | 1172.24 | 1657
288.15 K, x1 = 0.4167 | 1177.8 | 1653.7
288.15 K, x1 = 0.5153 | 1181.99 | 1652.5
288.15 K, x1 = 0.6157 | 1185.96 | 1653.1
288.15 K, x1 = 0.7042 | 1189.36 | 1654.9
288.15 K, x1 = 0.8028 | 1192.88 | 1658
288.15 K, x1 = 0.9065 | 1196.58 | 1662.1
293.15 K, x1 = 0.0698 | 1134.55 | 1661
293.15 K, x1 = 0.1114 | 1144.09 | 1655.6
293.15 K, x1 = 0.219 | 1159.15 | 1649.5
293.15 K, x1 = 0.3157 | 1167.38 | 1643.8
293.15 K, x1 = 0.4167 | 1172.09 | 1639.4
293.15 K, x1 = 0.5153 | 1176.32 | 1638
293.15 K, x1 = 0.6157 | 1180.66 | 1638.7
293.15 K, x1 = 0.7042 | 1184.47 | 1641.5
293.15 K, x1 = 0.8028 | 1188.27 | 1645.2
293.15 K, x1 = 0.9065 | 1192.09 | 1649.9
298.15 K, x1 = 0.0698 | 1130.93 | 1648.8
298.15 K, x1 = 0.1114 | 1140.43 | 1643.3
298.15 K, x1 = 0.219 | 1155.3 | 1636.8
298.15 K, x1 = 0.3157 | 1162.95 | 1631.4
298.15 K, x1 = 0.4167 | 1167.85 | 1628.2
298.15 K, x1 = 0.5153 | 1171.8 | 1627.1
298.15 K, x1 = 0.6157 | 1176.73 | 1627.5
298.15 K, x1 = 0.7042 | 1180.56 | 1630.3
298.15 K, x1 = 0.8028 | 1184.59 | 1633.5
298.15 K, x1 = 0.9065 | 1188.59 | 1637.7
303.15 K, x1 = 0.0698 | 1127.3 | 1637
303.15 K, x1 = 0.1114 | 1136.79 | 1631.5
303.15 K, x1 = 0.219 | 1151.47 | 1624.4
303.15 K, x1 = 0.3157 | 1158.29 | 1619.7
303.15 K, x1 = 0.4167 | 1162.58 | 1616.6
303.15 K, x1 = 0.5153 | 1166.36 | 1615.5
303.15 K, x1 = 0.6157 | 1171.53 | 1616.5
303.15 K, x1 = 0.7042 | 1176.14 | 1618.8
303.15 K, x1 = 0.8028 | 1180.73 | 1621.7
303.15 K, x1 = 0.9065 | 1185.16 | 1625.7
308.15 K, x1 = 0.0698 | 1123.65 | 1625.3
308.15 K, x1 = 0.1114 | 1133.19 | 1619.4
308.15 K, x1 = 0.219 | 1147.66 | 1612.2
308.15 K, x1 = 0.3157 | 1154.93 | 1607.7
308.15 K, x1 = 0.4167 | 1158.22 | 1604.7
308.15 K, x1 = 0.5153 | 1161.45 | 1604.2
308.15 K, x1 = 0.6157 | 1167.01 | 1605
308.15 K, x1 = 0.7042 | 1172.28 | 1607.4
308.15 K, x1 = 0.8028 | 1177.55 | 1610.5
308.15 K, x1 = 0.9065 | 1182.72 | 1613.7
313.15 K, x1 = 0.0698 | 1120 | 1613.8
313.15 K, x1 = 0.1114 | 1129.53 | 1607.9
313.15 K, x1 = 0.219 | 1143.87 | 1600
313.15 K, x1 = 0.3157 | 1150.95 | 1595.7
313.15 K, x1 = 0.4167 | 1154.7 | 1592.9
313.15 K, x1 = 0.5153 | 1158.26 | 1592.8
313.15 K, x1 = 0.6157 | 1163.8 | 1594
313.15 K, x1 = 0.7042 | 1169.14 | 1596.4
313.15 K, x1 = 0.8028 | 1174.46 | 1598.9
313.15 K, x1 = 0.9065 | 1179.21 | 1602
318.15 K, x1 = 0.0698 | 1116.33 | 1602.5
318.15 K, x1 = 0.1114 | 1125.84 | 1596.2
318.15 K, x1 = 0.219 | 1140.07 | 1587.9
318.15 K, x1 = 0.3157 | 1147.06 | 1584
318.15 K, x1 = 0.4167 | 1150.9 | 1581.2
318.15 K, x1 = 0.5153 | 1154.9 | 1581.6
318.15 K, x1 = 0.6157 | 1160.61 | 1582.8
318.15 K, x1 = 0.7042 | 1165.8 | 1585.1
318.15 K, x1 = 0.8028 | 1171.11 | 1587.7
318.15 K, x1 = 0.9065 | 1175.65 | 1590.8

Source: the NIST ThermoML archive (doi:10.1016/j.fluid.2013.08.029)
